Data as given in patent US20100304363A1 (E[…] TELECOMM[…] INSTITUTE, priority 2009, published 2010).

Key:
[1] = tested on: M-Type antigen (SARS coronavirus protein antigen, ProSci); assay type: binding
[2] = tested on: E-type antigen (SARS coronavirus protein antigen, ProSci); assay type: binding

| Substance | M (mean value) [1] | M-Type Ranking [1] | E Value [2] | E-Type Ranking [2] |
| --- | --- | --- | --- | --- |
| Phe-Phe | 0.059 | 28 | 0.116 | 29 |
| Phe-Trp | 0.071 | 22 | 0.159 | 14 |
| Phe-Leu | 0.061 | 27 | 0.198 | 6 |
| Phe-Arg | 0.080 | 13 | 0.167 | 11 |
| Phe-Tyr | 0.078 | 15 | 0.127 | 26 |
| Ser-Glu | 0.073 | 20 | 0.135 | 24 |
| Asp-Glu | 0.169 | 2 | 0.520 | 2 |
| Cys-Glu | 0.143 | 4 | 0.356 | 3 |
| Asp-Cys | 0.114 | 5 | 0.238 | 5 |
| Glu-Asp | 0.186 | 1 | 0.552 | 1 |
| Phe-Met | 0.059 | 29 | 0.190 | 8 |
| Glu-Ser | 0.111 | 6 | 0.198 | 6 |
| Cys-Asp | 0.144 | 3 | 0.326 | 4 |
| Leu-Val | 0.088 | 10 | 0.147 | 21 |
| Arg-Phe | 0.072 | 21 | 0.183 | 9 |
| Ser-Asp | 0.091 | 9 | 0.136 | 23 |
| Trp-Gln | 0.073 | 19 | 0.155 | 15 |
| Cys-Phe | 0.069 | 24 | 0.165 | 13 |
| Tyr-Trp | 0.063 | 26 | 0.090 | 30 |
| Lys-Phe | 0.080 | 14 | 0.154 | 16 |
| Ile-Met | 0.074 | 18 | 0.139 | 22 |
| Gln-Trp | 0.093 | 8 | 0.166 | 12 |
| Ala-Ile | 0.057 | 30 | 0.154 | 17 |
| Tyr-Gln | 0.069 | 25 | 0.122 | 27 |
| Val-Ala | 0.077 | 17 | 0.118 | 28 |
| Val-Met | 0.094 | 7 | 0.151 | 18 |
| Ser-Cys | 0.087 | 12 | 0.149 | 19 |
| Asp-Ser | 0.087 | 11 | 0.132 | 25 |
| Trp-Phe | 0.069 | 23 | 0.148 | 20 |
